Data on 15 compounds can be found in patent US20250215029A1 (Recludix Pharma, Inc., priority 2022, published 2025).

The first assay addresses T1, pY641-STAT6 in PBMC (Homo sapiens, UniProt P42226).
T1 construct: Cryopreserved Peripheral Blood Mononuclear Cells (PBMC) are from AllCells; host or cells: cryopreserved PBMC
T1 sequence (P42226 1-847): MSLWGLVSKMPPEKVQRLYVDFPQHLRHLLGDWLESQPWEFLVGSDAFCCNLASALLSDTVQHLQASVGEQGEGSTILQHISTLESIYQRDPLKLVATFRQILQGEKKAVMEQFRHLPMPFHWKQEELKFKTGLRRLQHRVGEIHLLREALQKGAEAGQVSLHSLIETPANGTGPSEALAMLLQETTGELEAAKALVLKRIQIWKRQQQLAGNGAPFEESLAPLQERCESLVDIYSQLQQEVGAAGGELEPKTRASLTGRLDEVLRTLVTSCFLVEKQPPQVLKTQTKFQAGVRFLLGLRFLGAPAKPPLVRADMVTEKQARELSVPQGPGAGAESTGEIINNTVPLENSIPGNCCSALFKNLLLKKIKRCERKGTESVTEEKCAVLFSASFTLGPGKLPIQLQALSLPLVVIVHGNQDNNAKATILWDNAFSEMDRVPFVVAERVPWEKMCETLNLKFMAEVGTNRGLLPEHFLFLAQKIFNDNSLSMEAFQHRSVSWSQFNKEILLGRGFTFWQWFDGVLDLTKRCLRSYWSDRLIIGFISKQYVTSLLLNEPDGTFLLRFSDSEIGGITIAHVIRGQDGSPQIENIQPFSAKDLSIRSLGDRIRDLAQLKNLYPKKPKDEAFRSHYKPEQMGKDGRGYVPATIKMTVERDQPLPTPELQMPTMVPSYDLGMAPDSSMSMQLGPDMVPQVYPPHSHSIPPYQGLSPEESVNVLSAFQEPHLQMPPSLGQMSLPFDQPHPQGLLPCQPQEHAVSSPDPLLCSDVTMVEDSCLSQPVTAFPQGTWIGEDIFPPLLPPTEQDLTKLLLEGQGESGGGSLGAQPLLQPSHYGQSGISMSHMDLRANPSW
In words: MSD-pSTAT-PBMC Assay (pSTAT6, IL-4 stimulated). The format is cell-based. The conditions noted are these: PBMC, compound 3 hrs, then 1 ng/mL IL-4 for 10 min; Table 115; read-out: STAT6. From the text:
Cryopreserved Peripheral Blood Mononuclear Cells (PBMC) are from AllCells. Recombinant Human IL-4 and IL-6 are from Peprotech. Mouse monoclonal anti-STAT3 antibody, rabbit monoclonal anti-pY705-STAT3 antibody, rabbit monoclonal Anti-pY641-STAT6 antibody, and lysis buffer are from Cell Signaling Technology (CST). Mouse monoclonal anti-STAT6 antibody is from BioLegend. Assay plates, blocker, and anti-rabbit secondary antibody are from Meso Scale Discovery (MSD).
Cyropreserved PBMCs were thawed out and allowed to recover overnight in IMDM+10% heat-inactivated FBS prior to plating 50,000 (STAT3) or 25,000 (STAT6) cells per well in 96-well U-bottom tissue culture plates. Cells were treated with compound for 3 hrs, then stimulated with 10 ng/mL IL-6 (STAT3) or 1 ng/mL IL-4 (STAT6) for 10 min. Cells were then spun down and washed with ice-cold PBS prior to lysing the cell pellet with 1× lysis buffer (CST) with 1× HALT protease and phosphatase inhibitor cocktail (Thermo). Lysates were transferred to and incubated overnight at 4° C. with shaking in QuickPlex 96-well high bind assay plates (MSD) pre-coated overnight with 30 μL per well of 0.6 μg/mL mouse monoclonal anti-STAT3 antibody (STAT3) or 2 μg/mL mouse monoclonal anti-STAT6 antibody (STAT6) in 1× PBS, and pre-blocked for 1 hour with 3% Blocker-A (MSD). Captured protein in the assay plates were then washed and probed with 25 μL per well of […] rabbit monoclonal anti-pY705-STAT3 antibody (STAT3) or 0.18 μg/ml rabbit monoclonal Anti-pY641-STAT6 antibody (STAT6) in 1% Blocker-A for 1 hour at room temperature with shaking, then washed and probed with 25 ul per well of 1 ug/ml Sulfo-TAG Labeled Goat Anti-Rabbit Antibody (MSD) in 1% Blocker-A for 1 hour at room temperature with shaking. Assay plates were then washed and 150 μL of 1× Read Buffer-T (MSD) was added to each well prior to reading on an SQ120 MSD Plate Reader. Assay signal from each sample was subtracted by the signal from unstimulated control wells and normalized to DMSO control wells. IC50 values were calculated using Graph Pad Prism Dose-Response Nonlinear Regression with variable slope. For both pSTAT3 and pSTAT6 A=≤100 nM; B 100-1000 nM; C=>1000-3000 nM; D=>3 μM; and NT=Not Tested.
Take `CC(C)OC(=O)OCOP(=O)(OCCSC(=O)C(C)(C)C)C(F)(F)c1ccc2sc(C(=O)N[C@H]3CCCC[C@H]4CC[C@@H](C(=O)N5C[C@@H](C#N)[C@H](c6ccccc6)C5)N4C3=O)cc2c1` (single isomer, unassigned) [Compound 1012]: the IC50 was < 100 nM.

As to `COCCOCC(=O)SCCOP(=O)(OCCSC(=O)COCCOC)C(F)(F)c1ccc2ccc(C(=O)N[C@H]3CCCC[C@H]4CC[C@@H](C(=O)N5C[C@@H](C#N)[C@H](c6cc[nH]c(=O)c6)C5)N4C3=O)cc2c1` (single isomer, unassigned) [Compound 1013], the IC50 fell in the range of 100 to 1000 nM.

For the compound `CC(C)(C)C(=O)SCCOP(=O)(OCCSC(=O)C(C)(C)C)C(F)(F)c1ccc2sc(C(=O)N[C@H]3CCC[C@H]4CC[C@@H](C(=O)N5C[C@@H](c6ccccc6)[C@H](C#N)C56CC6)N4C3=O)cc2c1` (single isomer, unassigned) [Compound 1080], the IC50 was < 100 nM.

Turning to `CC(C)(C)C(=O)SCCOP(=O)(OCCSC(=O)C(C)(C)C)C(F)(F)c1ccc2sc(C(=O)N[C@H]3CCC[C@H]4CC[C@@H](C(=O)N5C[C@H](c6ccccc6)[C@@H](C#N)C56CC6)N4C3=O)cc2c1` (single isomer, unassigned) [Compound 1081], the IC50 is < 100 nM.

Turning to `COCCOC(=O)[C@H](C)NP(=O)(OCC(F)(F)F)[C@@H](F)c1ccc2sc(C(=O)N[C@H]3CCCC[C@H]4CC[C@@H](C(=O)N5CC(c6ccccc6)C(C#N)C56CC6)N4C3=O)cc2c1` (stereo in doubt) [Compound 377, 2-methoxyethyl (((R)-(2-(((3S,6S,10aS)-3-((6S,7R)-7-cyano-6-phenyl-4-azaspiro[2.4]heptane-4-carbonyl)-5-oxodecahydropyrrolo [1,2-a]azocin-6-yl)carbamoyl)benzo [b]thiophen-5-yl)fluoromethyl)(2,2,2-trifluoroethoxy)phosphoryl)-L-alaninate], the IC50 was < 100 nM.

Still in this assay, the particulars now being: STAT6, PBMC, compound 3 hrs, then 1 ng/mL IL-4 for 10 min; Table 115.
As to `CCCOC(=O)[C@H](C)NP(=O)(Oc1ccccc1)[C@@H](F)c1ccc2sc(C(=O)N[C@H]3CCCC[C@H]4CC[C@@H](C(=O)N5C[C@@H](c6cccc(C(F)F)c6)[C@H](C#N)C56CC6)N4C3=O)cc2c1` (single isomer, unassigned) [Compound 482], the IC50 was < 100 nM.

Consider `CCCOC(=O)[C@H](C)NP(=O)(Oc1ccccc1)[C@H](F)c1ccc2sc(C(=O)N[C@H]3CCCC[C@H]4CC[C@@H](C(=O)N5CC(c6cccnc6)CC56CC6)N4C3=O)cc2c1` (stereo in doubt) [Compound 458, propyl (((S)-fluoro(2-(((3S,6S,10aS)-5-oxo-3-((R)-6-(pyridin-3-yl)-4-azaspiro[2.4]heptane-4-carbonyl)decahydropyrrolo[1,2-a]azocin-6-yl)carbamoyl)benzo [b]thiophen-5-yl)methyl)(phenoxy)phosphoryl)-L-alaninate], for which the IC50 is < 100 nM.

Consider `CCCOC(=O)[C@H](C)NP(=O)(Oc1ccccc1)C(F)c1ccc2sc(C(=O)N[C@H]3CCCC[C@H]4CC[C@@H](C(=O)N5C[C@H](c6cccnc6)CC56CC6)N4C3=O)cc2c1` (stereo in doubt) [Compound 459, propyl (((S)-fluoro(2-(((3S,6S,10aS)-5-oxo-3-((S)-6-(pyridin-3-yl)-4-azaspiro[2.4]heptane-4-carbonyl)decahydropyrrolo[1,2-a]azocin-6-yl)carbamoyl)benzo [b]thiophen-5-yl)methyl)(phenoxy)phosphoryl)-L-alaninate], for which the IC50 was < 100 nM.

Turning to `CCCOC(=O)[C@H](C)N[P@@](=O)(Oc1ccccc1)[C@@H](F)c1ccc2sc(C(=O)N[C@H]3CCCC[C@H]4CC[C@@H](C(=O)N5C[C@@H](c6cccnc6)CC56CC6)N4C3=O)cc2c1` (stereo in doubt) [Compound 460, propyl (((R)-fluoro(2-(((3S,6S,10aS)-5-oxo-3-((S)-6-(pyridin-3-yl)-4-azaspiro[2.4]heptane-4-carbonyl)decahydropyrrolo[1,2-a]azocin-6-yl)carbamoyl)benzo [b]thiophen-5-yl)methyl)(phenoxy)phosphoryl)-L-alaninate], the IC50 was < 100 nM.

Consider `CCCOC(=O)[C@H](C)NP(=O)(Oc1ccccc1)[C@@H](F)c1ccc2sc(C(=O)N[C@H]3CCCC[C@H]4CC[C@@H](C(=O)N5C(=O)N(c6cncc(C)c6)C(=O)C56CC6)N4C3=O)cc2c1` (stereo partly drawn) [Compound 303, propyl (((R)-fluoro(2-(((3S,6S,10aS)-3-(6-(5-methylpyridin-3-yl)-5,7-dioxo-4,6-diazaspiro [2.4]heptane-4-carbonyl)-5-oxodecahydropyrrolo [1,2-a]azocin-6-yl)carbamoyl)benzo [b]thiophen-5-yl)methyl)(phenoxy)phosphoryl)-L-alaninate], for which the IC50 fell in the range of 100 to 1000 nM.

The compound `CCCOC(=O)[C@H](C)NP(=O)(Cc1ccc2ccc(C(=O)N[C@H]3CCCC[C@H]4CC[C@@H](C(=O)N5CCC(c6cccnc6)C5)N4C3=O)cc2c1)Oc1ccccc1` (stereo partly drawn) [Compound 305, propyl (((7-(((3S,6S,10aS)-5-oxo-3-(3-(pyridin-3-yl)pyrrolidine-1-carbonyl)decahydropyrrolo[1,2-a]azocin-6-yl)carbamoyl)naphthalen-2-yl)methyl)(phenoxy)phosphoryl)-L-alaninate] registered an IC50 of 100 to 1000 nM.

In the case of `CCCOC(=O)[C@H](C)NP(=O)(Oc1ccccc1)C(F)(F)c1ccc2ccc(C(=O)N[C@H]3CCCC[C@H]4CC[C@@H](C(=O)N5CCC(c6cccnc6)C5)N4C3=O)cc2c1` (stereo partly drawn) [Compound 312, propyl ((difluoro(7-(((3S,6S,10aS)-5-oxo-3-(3-(pyridin-3-yl)pyrrolidine-1-carbonyl)decahydropyrrolo[1,2-a]azocin-6-yl)carbamoyl)naphthalen-2-yl)methyl)(phenoxy)phosphoryl)-L-alaninate], the IC50 was > 3000 nM.

Regarding `CCCOC(=O)[C@H](C)NP(=O)(Oc1ccccc1)C(C)(F)c1ccc2sc(C(=O)N[C@H]3CCCC[C@H]4CC[C@@H](C(=O)N5CCC(c6cccnc6)C5)N4C3=O)cc2c1` (stereo partly drawn) [Compound 314, propyl ((1-fluoro-1-(2-(((3S,6S,10aS)-5-oxo-3-(3-(pyridin-3-yl)pyrrolidine-1-carbonyl)decahydropyrrolo[1,2-a]azocin-6-yl)carbamoyl)benzo [b]thiophen-5-yl)ethyl)(phenoxy)phosphoryl)-L-alaninate], the IC50 is > 3000 nM.

Take `CCCOC(=O)[C@H](C)NP(=O)(Oc1ccccc1)[C@@H](F)c1ccc2sc(C(=O)N[C@H]3CCCC[C@H]4CC[C@@H](C(=O)N5C(=O)N(c6ccc(C(F)(F)F)nc6)C(=O)C56CC6)N4C3=O)cc2c1` (stereo partly drawn) [Compound 327, propyl (((R)-(2-(((3S,6S,10aS)-3-(5,7-dioxo-6-(6-(trifluoromethyl)pyridin-3-yl)-4,6-diazaspiro[2.4]heptane-4-carbonyl)-5-oxodecahydropyrrolo [1,2-a]azocin-6-yl)carbamoyl)benzo [b]thiophen-5-yl)fluoromethyl) (phenoxy)phosphoryl)-L-alaninate]: the IC50 was > 3000 nM.

The assay is the same for the next values; noted with them: read-out: STAT6; PBMC, compound 3 hrs, then 1 ng/mL IL-4 for 10 min; Table 115.
Regarding `CCCOC(=O)[C@H](C)NP(=O)(Oc1ccccc1)[C@@H](F)c1ccc2sc(C(=O)N[C@H]3CCCC[C@H]4CC[C@@H](C(=O)N5C[C@@H](c6cccc(C(F)F)c6)[C@H](C#N)C56CC6)N4C3=O)cc2c1` (single isomer, unassigned) [Compound 483], the IC50 is < 100 nM.
